The numbers were not newly measured in US20080317753A1, “SELECTING PATIENTS FOR THERAPY WITH A HER INHIBITOR” (GENENTECH, INC., priority 2004, published 2008), which cites them from elsewhere.

Counter-ions that a name gives are not always drawn.

The conditions of data set [1]: single agent.
For data set [2] the following is noted: combined with gemcitabine in several combinations of different chemotherapies, phase II trials.
Data set [3] deals with HER2-overexpressing metastatic breast cancers. The note with it: patients with HER2-overexpressing metastatic breast cancers with extensive prior anti-cancer therapy.

Consider `Nc1ccn([C@@H]2O[C@H](CO)[C@@H](O)C2(F)F)c(=O)n1` [gemcitabine, 2′-deoxy-2′,2′-difluorocytidine monohydrochloride (b-isomer)], for which the “nausea and vomiting, combined incidence” value in data set [1] is listed as 69%.
Regarding “trastuzumab: recombinant humanized version of murine HER2 antibody 4D5; light and heavy chain sequences SEQ ID NOS. 15 and 16”, in data set [2], the tolerability entry is “well tolerated with no observed cardiac or unexpected toxicities”. In addition, in data set [3], the clinical activity entry was “clinically active”.
